According to PubChem BioAssay (NCI):
Where “and” joins values, the source holds several entries; their conditions need not be identical. Equal values may be shown once.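 Growth conditions: 96-well plates. Treatment: test compound, 48 hours, 5 concentrations. Analysis: linear interpolation between bracketing concentrations; unreached endpoints set to highest concentration. GI50 is the concentration that inhibits growth by half. TGI marks complete inhibition of growth.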

Columns and labels:
Test in all cases: growth of human tumour cells (NCI), 48 h
M14 melanoma = tested on: M14 melanoma
PC-3 prostate = tested on: PC-3 prostate
COLO 205 colon = tested on: COLO 205 colon
RXF 393 renal = tested on: RXF 393 renal
SK-MEL-5 melanoma = tested on: SK-MEL-5 melanoma
KM12 colon = tested on: KM12 colon
SF-295 CNS = tested on: SF-295 CNS
SR leukemia = tested on: SR leukemia

SMILES	TGI (M14 melanoma)	TGI (PC-3 prostate)	TGI (COLO 205 colon)	TGI (RXF 393 renal)	TGI (SK-MEL-5 melanoma)	TGI (KM12 colon)	TGI (SF-295 CNS)	TGI (SR leukemia)	GI50 (M14 melanoma)	GI50 (PC-3 prostate)	GI50 (COLO 205 colon)	GI50 (RXF 393 renal)	GI50 (SK-MEL-5 melanoma)	GI50 (KM12 colon)	GI50 (SF-295 CNS)	GI50 (SR leukemia)
C[C@H]1CC[C@H]([C@@H](C)[C@H]2[C@@H](O)C[C@H]3[C@@H]4CC[C@H]5C[C@@H](O)CC[C@]5(C)[C@H]4CC[C@]23C)NC1	59.2 µM	31 µM	45.7 µM	47.7 µM	44 µM	30.2 µM	39.2 µM	24.7 µM	–	–	–	–	–	–	–	–
CCNCCC1(CC)C(=O)NC(=O)NC1=O	> 100 µM	> 100 µM	> 100 µM	> 100 µM	> 100 µM	> 100 µM	> 100 µM	> 100 µM	–	–	–	–	–	–	–	–
CC1=CC(=O)CC(C)(C)C1(O)/C=C/C(C)=C/C(=O)O (stereo unspecified)	> 100 µM	> 100 µM	> 100 µM	> 100 µM	> 100 µM	> 100 µM	> 100 µM	> 100 µM	–	–	–	–	–	–	–	–
CCCOc1ccc(-c2nc(-c3ccc(N=Cc4ccc(N(CCOS(C)(=O)=O)CCOS(C)(=O)=O)cc4C)cc3)cs2)cc1	> 86.4 µM	77.9 µM	14.9 µM	28.9 µM	> 71.3 µM	42 µM	45.5 µM	57 µM	–	–	–	–	–	–	–	–
Fc1ccc(-c2nn3c(CNc4ccccc4)nnc3s2)cc1	> 100 µM	> 100 µM	> 100 µM	> 100 µM	36.7 µM	> 100 µM	59.3 µM	> 100 µM	35.5 µM	31 µM	11.2 µM	> 100 µM	17.5 µM	14.9 µM	20.5 µM	> 100 µM
COC(=O)[C@H]1[C@@H](O)[C@@]2(O)c3c(OC)cc(O[C@@H]4O[C@@H]([C@H](O)CO)CO[C@H]4OC)cc3O[C@@]2(c2ccc(OC)cc2)[C@@H]1c1ccccc1	0.0271 µM	0.0338 µM	0.00989 µM	0.0436 µM	0.0494 µM	0.0333 µM	0.0471 µM	0.147 µM	0.00818 µM	0.00405 µM	0.00309 µM	0.00944 µM	0.00662 µM	0.00329 µM	0.0127 µM	0.00341 µM
O=C(c1ccc(OCCN2CCCCC2)cc1)c1c(-c2ccc(O)cc2)sc2cc(O)ccc12	11.1 µM and 32.3 µM	18.9 µM and 35.7 µM	24.7 µM and 40.6 µM	19.1 µM and 15.9 µM	21.4 µM and 16.9 µM	15.3 µM and 34.3 µM	11 µM and 28.5 µM	–	3.23 µM and 10.3 µM	3.9 µM and 11.7 µM	12.3 µM and 9.73 µM	5.2 µM and 4.32 µM	9.51 µM and 5.32 µM	4.49 µM and 9.32 µM	2.99 µM and 7.88 µM	3.16 µM and 1.88 µM
CC(C)CC1C(=O)N2CCC[C@H]2C2(O)O[C@](NC(=O)C3C=C4c5cccc6[nH]c(Br)c(c56)C[C@H]4N(C)C3)(C(C)C)C(=O)N12 (stereo partly specified)	> 100 µM	> 100 µM	> 100 µM	> 100 µM	> 100 µM	> 100 µM	> 100 µM	> 100 µM	> 100 µM	3 µM	–	4.87 µM	4.57 µM	6.23 µM	5.3 µM	33.7 µM
CN1CCC(CNc2ccc3ncc(-c4cccc(OC(F)(F)F)c4)n3n2)CC1	3.5 µM and 3.15 µM	7.13 µM and > 10 µM	3.07 µM and 3.08 µM	3.68 µM and 6.48 µM	2.82 µM and 2.85 µM	1.78 µM and > 10 µM	3.48 µM and 3.87 µM	5.24 µM and 4.46 µM	1.74 µM and 1.48 µM	1.67 µM and 2.41 µM	1.59 µM and 1.47 µM	1.44 µM and 1.72 µM	1.47 µM and 1.51 µM	0.331 µM and 0.427 µM	1.67 µM and 1.55 µM	1.9 µM and 1.7 µM
COC(=O)[C@H]1C(=O)[C@@]2(C)[C@H]([C@H](OC(=O)c3ccccc3)[C@]3(O)C[C@H](OC(=O)[C@H](O)[C@@H](NC(=O)c4ccc(F)cc4)c4ccccc4)C(C)=C1C3(C)C)[C@]1(OC(C)=O)CO[C@@H]1C[C@@H]2O	0.105 µM	> 25 µM	0.0565 µM	> 25 µM	> 9.79 µM	–	0.0639 µM	1.69 µM	0.0114 µM	0.0164 µM	0.00709 µM	0.0152 µM	0.0104 µM	0.00629 µM	0.00919 µM	0.00428 µM
CCC(=O)C1(c2ccccc2)CCN(C)CC1	> 100 µM	> 100 µM	> 100 µM	> 100 µM	> 100 µM	> 100 µM	> 100 µM	> 100 µM	–	–	–	–	–	–	–	–
COc1cc(-c2nc(NC(C)=O)sc2-c2ccnc(NCCNS(=O)(=O)c3ccccc3)n2)ccc1Cl	5.42 µM	> 100 µM	6.01 µM	7.53 µM	4.25 µM	59.3 µM	13.4 µM	> 100 µM	2.09 µM	2.88 µM	2.21 µM	2.74 µM	1.58 µM	3.26 µM	2.74 µM	2.3 µM
COc1ccc(CCN2CCCN3C2=Nc2ccccc2S3(=O)=O)cc1	> 100 µM	> 100 µM	1.48 µM	> 100 µM	16.4 µM	> 100 µM	> 100 µM	> 100 µM	0.322 µM	0.529 µM	0.329 µM	0.622 µM	0.357 µM	0.451 µM	0.389 µM	0.193 µM
CN(C)CCCNC(=O)c1ccc2oc3cc4ccccc4c(=O)n3c2c1	> 50 µM	> 50 µM	> 50 µM	> 50 µM	28.8 µM	> 50 µM	> 50 µM	> 50 µM	30.3 µM	> 50 µM	29.4 µM	41.6 µM	11.2 µM	18.5 µM	33.7 µM	30.8 µM
CC(C)CCSC1=CC(=O)c2ccccc2C1=O	33.4 µM	6.85 µM	22.9 µM	16.3 µM	20.1 µM	21.5 µM	42.2 µM	0.616 µM	15.6 µM	1.96 µM	10.9 µM	5.06 µM	0.723 µM	7.36 µM	14.7 µM	0.0506 µM
N=C(N)/N=C(\N)c1c(-c2cc(O)ccc2O)nc2sccn12	37.9 µM	> 100 µM	> 100 µM	41.6 µM	> 100 µM	> 100 µM	> 100 µM	87.2 µM	19.8 µM	26.7 µM	38.7 µM	20.6 µM	> 100 µM	34.8 µM	> 100 µM	22.7 µM
CNC(=O)c1c(NC(=O)c2ccc(C(F)(F)F)cc2)sc2c1CCC(=O)C2	3.77 µM	1.35 µM	3.1 µM	2.15 µM	2.58 µM	2.46 µM	2.97 µM	> 100 µM	0.508 µM	0.186 µM	0.603 µM	0.41 µM	1.11 µM	0.668 µM	0.821 µM	0.356 µM
CCc1c2c(nc3cc4c(c(N)c13)OCO4)-c1cc3c(c(=O)n1C2)COC(=O)[C@]3(O)CC	1.03 µM	> 100 µM	–	0.44 µM and 0.382 µM	0.0222 µM and 0.101 µM	1.66 µM	–	> 100 µM	< 0.001 µM	0.228 µM and 0.0288 µM	0.696 µM	0.0188 µM and 0.043 µM	< 0.001 µM	0.133 µM and 0.0578 µM	< 0.001 µM	–
Cc1cc(C(=O)Nc2nc3cccc(Cl)c3n2[C@@H]2CCCCN(C(=O)/C=C/CN(C)C)C2)ccn1	27.5 µM	28.2 µM	22.4 µM	25.1 µM	22.8 µM	25.6 µM	28.6 µM	35.5 µM	13.7 µM	9.22 µM	7.69 µM	9.35 µM	8.97 µM	9.43 µM	13.9 µM	11.3 µM
CN[C@@H](C)C(=O)N[C@H]1CN(C(=O)CC(C)C)CC[C@H]2CC[C@@H](C(=O)NC(c3ccccc3)c3ccccc3)N2C1=O	> 100 µM	> 100 µM	> 100 µM	> 100 µM	> 100 µM	> 100 µM	> 100 µM	> 100 µM	> 100 µM	> 100 µM	> 79.8 µM	7.38 µM	41.9 µM	> 100 µM	> 100 µM	> 78 µM
COc1cc2c(F)nccc2cc1C(=O)N[C@@H](c1ccc(F)c(Cl)c1)[C@@H]1C[C@@H](O)CN1	23.2 µM	> 43.3 µM	19.4 µM	0.268 µM	28.1 µM	19.3 µM	13.2 µM	> 41.9 µM	10.5 µM	0.54 µM	3.1 µM	0.0362 µM	14.7 µM	1.69 µM	0.131 µM	–
C#CCSc1n[nH]c(-c2ccco2)n1	> 100 µM	> 100 µM	> 100 µM	> 100 µM	> 100 µM	> 100 µM	> 100 µM	> 100 µM	–	–	–	–	–	–	–	–
CO/[N+]([O-])=C\C(=O)N/C=C/C(=O)O	> 100 µM	> 100 µM	> 100 µM	> 100 µM	> 100 µM	> 100 µM	> 100 µM	> 100 µM	–	–	–	–	–	–	–	–
NC(=O)C1c2ccccc2C=Cc2ccccc21	> 100 µM	> 100 µM	> 100 µM	> 100 µM	> 100 µM	> 100 µM	> 100 µM	> 100 µM	> 100 µM	> 100 µM	> 100 µM	> 100 µM	> 100 µM	> 100 µM	> 100 µM	> 100 µM
